This is an account of results in patent US8772300B2, “Phenyl or pyridinyl-ethynyl derivatives” (Hoffmann-La Roche Inc., priority 2011, dated 2014).

The target of the assay is T1, human mGlu5a receptor (Homo sapiens, UniProt P41594).
T1 construct: expressed in transfected cells
Briefly: Intracellular Ca2+ mobilization assay (mGlu5 PAM). The class given is cell-based. Particulars: for Emax: HEK293, maximal response in % of the maximal stimulatory effect obtained with saturating concentrations of L-glutamate, HEK-293 human mGlu5a cells, read-out: Eff. (%); for EC50: HEK-293 cells stably transfected with human mGlu5a receptor, L-glutamate added at EC20 (typically around 80 μM) after 10-30 min pre-incubation with test compound, read-out: EC50 (nM) mGlu5PAM. The gist of the method:
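HEK-293 cells stably expressing human mGlu5a at low level, Fluo-4AM loaded, preincubated 10-30 min at 37 °C with 11 half-log compound dilutions, then challenged with L-glutamate at EC20 (typically around 80 μM). Peak fluorescence minus basal, normalized to maximal glutamate response; EC50, Hill slope and maximal response fitted.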
For orientation: A change in cytosolic calcium serves as a functional read-out for many receptors and channels.

As a reminder, the EC50 is the concentration needed to bring the measured effect to its halfway point.

T1 sequence (P41594 21-1180 isoform P41594-2 limits assumed): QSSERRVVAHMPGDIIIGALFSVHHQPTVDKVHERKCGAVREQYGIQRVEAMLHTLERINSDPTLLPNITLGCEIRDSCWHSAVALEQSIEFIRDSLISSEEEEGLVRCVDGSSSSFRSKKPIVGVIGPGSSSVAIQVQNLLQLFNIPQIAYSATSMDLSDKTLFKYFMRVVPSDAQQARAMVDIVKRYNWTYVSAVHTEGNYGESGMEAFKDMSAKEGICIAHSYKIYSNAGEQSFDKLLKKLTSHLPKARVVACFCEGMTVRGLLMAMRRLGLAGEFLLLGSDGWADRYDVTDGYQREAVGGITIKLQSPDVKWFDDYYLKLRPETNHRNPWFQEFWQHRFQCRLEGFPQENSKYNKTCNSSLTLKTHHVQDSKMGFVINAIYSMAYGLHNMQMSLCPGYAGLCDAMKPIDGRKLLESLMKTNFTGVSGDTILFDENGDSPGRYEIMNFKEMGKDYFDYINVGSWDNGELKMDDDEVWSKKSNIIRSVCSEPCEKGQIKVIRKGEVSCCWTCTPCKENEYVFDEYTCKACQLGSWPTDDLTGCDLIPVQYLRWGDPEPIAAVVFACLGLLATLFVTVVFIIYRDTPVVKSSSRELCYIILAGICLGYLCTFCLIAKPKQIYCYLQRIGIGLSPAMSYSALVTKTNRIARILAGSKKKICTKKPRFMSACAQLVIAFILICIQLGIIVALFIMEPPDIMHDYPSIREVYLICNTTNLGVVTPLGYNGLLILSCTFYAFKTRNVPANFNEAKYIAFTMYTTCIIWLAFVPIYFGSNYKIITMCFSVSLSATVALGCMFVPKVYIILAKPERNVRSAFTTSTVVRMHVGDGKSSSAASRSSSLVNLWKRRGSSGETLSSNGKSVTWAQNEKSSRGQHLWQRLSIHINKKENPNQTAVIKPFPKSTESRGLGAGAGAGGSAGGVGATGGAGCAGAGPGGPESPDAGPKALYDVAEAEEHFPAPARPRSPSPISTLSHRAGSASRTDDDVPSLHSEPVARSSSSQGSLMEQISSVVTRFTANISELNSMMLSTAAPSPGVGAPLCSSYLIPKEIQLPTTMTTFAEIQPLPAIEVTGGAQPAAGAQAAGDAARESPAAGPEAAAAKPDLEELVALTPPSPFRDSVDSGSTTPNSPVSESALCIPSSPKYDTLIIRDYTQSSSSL

Consider `CN(C(=O)c1ccc(C#Cc2cncc(Cl)c2)cn1)C(C)(C)C(F)(F)F` [Example 55, 5-(5-Chloro-pyridin-3-ylethynyl)-pyridine-2-carboxylic Acid methyl-(2,2,2-trifluoro-1,1-dimethyl-ethyl)-amide], for which the Emax amounted to 63% and the EC50 turned out to be 37 nM.
Turning to `CN(C(=O)c1ccc(C#Cc2cccc(Cl)c2)cn1)C(C)(C)C(F)(F)F` [Example 56, 5-(3-Chloro-phenylethynyl)-pyridine-2-carboxylic Acid methyl-(2,2,2-trifluoro-1,1-dimethyl-ethyl)-amide], the Emax stood at 29% and the half-maximal effective concentration (EC50) was 22 nM.
Turning to `CC(C)(NC(=O)c1ncc(C#Cc2ccnc(Cl)c2)cn1)C(F)(F)F` [Example 58, 5-(2-Chloro-pyridin-4-ylethynyl)-pyrimidine-2-carboxylic Acid (2,2,2-trifluoro-1,1-dimethyl-ethyl)-amide], the Emax came out at 30% and the EC50 came to 57 nM.
